The nature of data set [1]: Volume of distribution at steady state in Sprague-Dawley rat at 2 mg/kg, iv measured for 24 hrs by LC-MS/MS analysis. It is filed as ADME, organism-based. The note with it: in vivo, read-out: Vdss.
Data set [2] in a line: Clearance in Sprague-Dawley rat at 2 mg/kg, iv measured for 24 hrs by LC-MS/MS analysis. It is filed as ADME, organism-based. The note with it: in vivo.
Data set [3] is described as follows: Cmax in Sprague-Dawley rat at 2 mg/kg, iv measured for 24 hrs by LC-MS/MS analysis. It is filed as ADME, organism-based. Details: time 24 hrs, dose 2 mg/kg, route iv. Conditions: in vivo.
The nature of data set [4]: AUC (0 to t) in Sprague-Dawley rat at 5 mg/kg, po measured for 24 hrs by LC-MS/MS analysis. Conditions: in vivo; for AUC(0-t) at 24 h: Sprague-Dawley. Details: time 24 hrs, dose 5 mg/kg, route po. It is filed as ADME, organism-based.
Data set [5] is described as follows: Cmax in Sprague-Dawley rat at 5 mg/kg, po measured for 24 hrs by LC-MS/MS analysis. It is filed as ADME, organism-based. The arrangement: time 24 hrs, dose 5 mg/kg, route po. The note with it: in vivo.
Data set [6] is described as follows: Half life in Sprague-Dawley rat at 5 mg/kg, po measured for 24 hrs by LC-MS/MS analysis. Format: ADME, organism-based. The note with it: in vivo.
Data set [7] can be described thus: Oral bioavailability in Sprague-Dawley rat at 5 mg/kg measured for 24 hrs by LC-MS/MS analysis. The note with it: in vivo; for bioavailability: Sprague-Dawley. Format: ADME, organism-based.
Data set [8] in a line: AUC (0 to t) in Sprague-Dawley rat at 2 mg/kg, iv measured for 24 hrs by LC-MS/MS analysis. It is filed as ADME, organism-based. Details: dose 2 mg/kg, time 24 hrs, route iv. Conditions: in vivo; for AUC(0-t) at 24 h: Sprague-Dawley.
Data set [9] in a line: Half life in Sprague-Dawley rat at 2 mg/kg, iv measured for 24 hrs by LC-MS/MS analysis. Format: ADME, organism-based. Conditions: in vivo.
Data set [10] is described as follows: Drug concentration in Sprague-Dawley rat plasma at 1 mg/kg, iv measured after 15 mins by LC-MS/MS analysis. Format: ADME, organism-based.
Data set [11] can be described thus: Drug concentration in Sprague-Dawley rat brain at 1 mg/kg, iv measured after 15 mins by LC-MS/MS analysis. Format: ADME, organism-based. The note with it: read-out: Ct.
The nature of data set [12]: Drug concentration in Sprague-Dawley rat brain at 1 mg/kg, iv measured after 45 mins by LC-MS/MS analysis. Conditions: read-out: Ct. It is filed as ADME, organism-based.
Data set [13] is described as follows: Drug concentration in Sprague-Dawley rat plasma at 1 mg/kg, iv measured after 45 mins by LC-MS/MS analysis. Format: ADME, organism-based.
A short description of data set [14]: Drug concentration in Sprague-Dawley rat brain at 1 mg/kg, iv measured after 75 mins by LC-MS/MS analysis. It is filed as ADME, organism-based. The note with it: read-out: Ct.
Data set [15] is described as follows: Ratio of drug concentration in Sprague-Dawley rat brain to plasma at 1 mg/kg, iv measured after 45 mins by LC-MS/MS analysis. Format: ADME, organism-based. The note with it: brain and plasma, read-out: BPR.
The nature of data set [16]: Ratio of drug concentration in Sprague-Dawley rat brain to plasma at 1 mg/kg, iv measured after 75 mins by LC-MS/MS analysis. It is filed as ADME, organism-based. Conditions: brain and plasma, read-out: BPR.
Data set [17] can be described thus: Ratio of drug concentration in Sprague-Dawley rat brain to plasma at 1 mg/kg, iv measured after 15 mins by LC-MS/MS analysis. Format: ADME, organism-based. Conditions: brain and plasma, read-out: BPR.
Data set [18] is described as follows: Drug concentration in Sprague-Dawley rat plasma at 1 mg/kg, iv measured after 75 mins by LC-MS/MS analysis. It is filed as ADME, organism-based.
For data set [19], the system named is Mus musculus. Description: Cognitive enhancing effect in C57BL/6J mouse model of scopolamine-induced memory deficit assessed as reduction in incubation period of mouse entering into dark compartment at 10 mg/kg, ip pretreated for 30 mins followed by scopolamine addition and measured after 30 mins by step-through passive avoidance test. Format: functional, organism-based. Conditions: time 1.0 hrs.

For data set [20], the system named is Rattus norvegicus. Description: Cognitive enhancing effect in Wistar rat model of scopolamine-induced cognitive impairment assessed as rescue of loss of preference for new object at 3 to 5 mg/kg, ip administered as single dose for 30 mins followed by scopolamine addition and measured after 30 mins by Novel object recognition assay. Format: functional, organism-based. The note with it: dose 3-5 mg/kg, time 1.0 hrs.

A short description of data set [21]: In vivo antagonist activity at 5-HT6R in Sprague-Dawley rat assessed as increase in intracerebral hippocampal acetylcholine level at 1.5 mg/kg, ip pretreated for 30 mins followed by donepezil addition and measured every 20 mins for 360 mins by LC-MS/MS analysis relative to control. Format: functional. The arrangement: scale not given: the % may be the effect or the level left. Conditions: time 390 min, 6.5 h.

The nature of data set [22]: In vivo antagonist activity at 5-HT6R in Sprague-Dawley rat assessed as increase in intracerebral hippocampal acetylcholine level at 5 mg/kg, ip pretreated for 30 mins followed by donepezil addition and measured every 20 mins for 360 mins by LC-MS/MS analysis relative to control. Details: scale not given: the % may be the effect or the level left. Conditions: time 390 min, 6.5 h. Format: functional.

Data set [23] deals with 5-hydroxytryptamine receptor 6 (Homo sapiens, UniProt P50406). The data set is described as follows: Displacement of [3H]-LSD from human 5HT6 receptor expressed in CHO cells assessed as inhibition constant incubated for 120 mins by liquid scintillation counting analysis. It is filed as cell-based. A general note: Displacement assays read how much labelled ligand stays bound in the presence of the test substance.

Five compounds from ChEMBL document CHEMBL5107995, “Novel difluoromethylated 1-(phenylsulfonyl)-4-(piperazin-1-yl)-1H-indole derivatives as potent 5-HT6 receptor antagonist with AMDE-improving properties: Design, synthesis, and biological evaluation” (Bioorg Med Chem, 2022) can be followed below.

Calls of active or inactive are those of the source. The rule behind the calls is not given here.

Chain of 5-hydroxytryptamine receptor 6 (P50406 whole entry): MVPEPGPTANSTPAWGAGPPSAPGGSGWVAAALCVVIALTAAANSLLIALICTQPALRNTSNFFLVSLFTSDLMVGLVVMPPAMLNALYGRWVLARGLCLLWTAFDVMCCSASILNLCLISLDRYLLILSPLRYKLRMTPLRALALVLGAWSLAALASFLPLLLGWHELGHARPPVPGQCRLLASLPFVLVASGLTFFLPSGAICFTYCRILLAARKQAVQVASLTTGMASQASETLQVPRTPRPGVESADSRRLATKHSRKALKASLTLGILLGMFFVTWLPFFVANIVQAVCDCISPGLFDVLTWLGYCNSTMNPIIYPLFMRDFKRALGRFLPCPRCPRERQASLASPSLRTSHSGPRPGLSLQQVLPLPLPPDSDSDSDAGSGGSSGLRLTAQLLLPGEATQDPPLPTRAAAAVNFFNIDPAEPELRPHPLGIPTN

For `O=S(=O)(c1ccccc1F)n1cc(C(F)F)c2c(N3CCNCC3)cccc21`, the Vd in [1] was determined as 24 L/kg. In addition, the clearance in [2] is 108 mL/min/kg. Besides, the Cmax in data set [3] was 112 ng/mL; in [5], 33.6 ng/mL. Further, the AUC(0-t) at 24 h was found to be 132 ng·h/mL in data set [4] and 272 ng·h/mL in data set [8]. Also, the values for the half-life in data set [6] and in [9] were 119 min and 152 min, respectively. This compound also yielded a bioavailability in [7] of 18.5%.
For `O=S(=O)(c1ccccc1Cl)n1cc(C(F)F)c2c(N3CCNCC3)cccc21`, the Vd in data set [1] amounted to 25.8 L/kg. In data set [2], this compound gave a clearance of 123 mL/min/kg. In addition, the results for the Cmax in data set [3] and in [5] were 120 ng/mL and 33.6 ng/mL, respectively. Moreover, the figures for the AUC(0-t) at 24 h in [4] and in data set [8] were 162 ng·h/mL and 242 ng·h/mL, respectively. The half-life in data set [6] was 181 min; in data set [9], 153 min. This compound gave a bioavailability in data set [7] of 29.5%.
Consider `O=S(=O)(c1cccc(Cl)c1)n1cc(C(F)F)c2c(N3CCNCC3)cccc21`, for which, in data set [1], the Vd was found to be 26.6 L/kg. Further, the values for the concentration at 0.25 h in data set [10] and in data set [11] were 434 ng/mL and 406 ng/g, respectively. Further, the clearance in [2] is 82.8 mL/min/kg. In addition, the Cmax in [3] came to 200 ng/mL; in [5] it was 44.1 ng/mL. Besides, the AUC(0-t) at 24 h in [4] turned out to be 348 ng·h/mL; in data set [8], 306 ng·h/mL. Besides, the concentration at 0.75 h in data set [12] came out at 302 ng/g; in data set [13], 127 ng/mL. The concentration at 1.25 h was 224 ng/g in data set [14] and 69.6 ng/mL in data set [18]. The half-life in [6] was 263 min; in data set [9], 268 min. Moreover, the Kp at 0.75 h in data set [15] is 2.37. The Kp at 1.25 h in [16] worked out at 3.21. Moreover, the bioavailability in data set [7] turned out to be 37%. In data set [17], the Kp at 0.25 h turned out to be 0.94.
As to `O=S(=O)(c1cccc(F)c1)n1cc(C(F)F)c2c(N3CCNCC3)cccc21`, in data set [1], the Vd was 18.8 L/kg. Besides, the result in data set [19] and in [20] was Active. Besides, the concentration at 0.25 h in data set [10] is 58.1 ng/mL; in data set [11], 279 ng/g. The clearance in data set [2] was found to be 93.4 mL/min/kg. Also, the Cmax was 140 ng/mL in [3] and 51.8 ng/mL in [5]. For the same compound, the Activity is 235% in data set [21] and 287% in [22]. Moreover, the AUC(0-t) at 24 h in data set [4] was determined as 267 ng·h/mL; in data set [8], 323 ng·h/mL. Further, the values for the concentration at 0.75 h in data set [12] and in [13] were 187 ng/g and 30.3 ng/mL, respectively. Moreover, the concentration at 1.25 h in [14] amounted to 128 ng/g; in [18] it was 20.8 ng/mL. Moreover, the values for the half-life in [6] and in data set [9] were 260 min and 137 min, respectively. Besides, in [15], the Kp at 0.75 h amounted to 6.17. Further, in [16], the Kp at 1.25 h was determined as 6.16. Also, the bioavailability in data set [7] was 34.4%. Also, in [17], the Kp at 0.25 h stood at 4.81.
With `Cc1cn(S(=O)(=O)c2cccc(F)c2)c2cccc(N3CCNCC3)c12`, the Vd in data set [1] amounted to 6.7 L/kg. Also, the Ki in data set [23] is 0.51 nM. In addition, the clearance in [2] was determined as 63 mL/min/kg. Besides, the results for the Cmax in [3] and in data set [5] were 159 ng/mL and 3.61 ng/mL, respectively. For the same compound, the AUCt in data set [4] (24 h) is 9.37 ng·h/mL; in data set [8] (24 h), 254 ng·h/mL. For the same compound, the F in data set [7] (po, 5 mg/kg, 24 h) is reported as 5.95%. In data set [9], this compound gave a half-life of 84 min.

Broadly, the clearance is the volume of plasma or blood freed of the substance per unit of time. What is called Cmax is the highest concentration seen after dosing. The term AUC(0-t) denotes the area under the concentration-time curve up to a stated or last time point. What is called half-life is the time in which the quantity being followed falls by half. Broadly, the bioavailability is the share of a dose that reaches the circulation, judged against a reference dose that is usually intravenous. As a reminder, the Ki is a measure of affinity in units of concentration, obtained from inhibition or displacement.
